Test system: Interleukin-1 Secretion by Macrophages
Assay: Ex vivo inhibition of interleukin-1 secretion by macrophages (LPS-stimulated peritoneal cells from orally dosed mice; IL-1 measured by thymocyte H3-thymidine incorporation)
Format: in vivo
Settings: p.o. 3 times (40, 24 and 16 hours prior to sacrifice); for Interleukin-1 units/ml Mean ± Sem(n): 100 mg/kg, macrophage culture supernatant, unit = reciprocal of the dilution required to give 50% of maximal H3-thymidine incorporation; for inhibition at 100 mg/kg: Mus musculus, Macrophage, po, versus control group
Method: The interleukin-1 inhibitory properties of the compounds of this invention can readily be determined by standard and well known procedures.
Peritoneal cells from mice which had been orally dosed with 100 mg/kg of test compound 40, 24 and 16 hours prior to sacrifice, were collected by lavage, pooled and washed by centrifugation. The cells were resuspended in RPMI-1640 medium containing antibiotics, and plated. After 1 hour of incubation at 37°C, non-adherent cells were removed, and RPMI, with or without lipopolysaccharide, was added to each well. The presence of lipopolysaccharide will induce interleukin-1 secretion by macrophages. After incubation for 6 hours, the culture supernatant was collected, filtered and stored until assayed.
Mouse thymocytes were suspended in RPMI enriched with fetal bovine serum and 2-mercaptoethanol. Aliquots of cell suspension were incubated with an equal volume of dilutions of macrophage culture supernatant in the presence of a suboptimal amount of phytohemagglutinin for 72 hours in flat-bottom plates. Microcultures were pulsed with H³-thymidine for the last 16 hours and were harvested on glass fiber filters. H₃-thymidine will be incorporated into the DNA of actively proliferating cells. The radioactivity was determined by liquid scintillation counting, and interleukin-1 activity was expressed in units defined as the reciprocal of the dilution required to give 50% of maximal H³-thymidine incorporation.
Compounds were administered at a dosage of 100 mg/kg, p.o. 3 times (40, 24 and 16 hours prior to sacrifice). Compound 1: 1-(2-furanylmethyl)-1H-pyrrole-2-carboxylic acid Compound 2: 1-(phenylmethyl)-1Hpyrrole-2 -carboxylic acid Compound 3: 1-([1,1'-biphenyl]-4-ylmethyl)-1H -pyrrole-2-carboxylic acid

Row | Structure (SMILES) | Interleukin-1 units/ml Mean ± Sem(n) | inhibition at 100 mg/kg
1 | O=C(O)c1cccn1Cc1ccco1 [Compound 1, 1-(2-furanylmethyl)-1H-pyrrole-2-carboxylic acid] | 10.2 +/- 3.4 units/ml | 93.2%
2 | O=C(O)c1cccn1Cc1ccc(-c2ccccc2)cc1 [Compound 3, 1-([1,1'-Biphenyl]-4-ylmethyl)-1H-Pyrrole-2-Carboxylic Acid] | 26.6 +/- 3.9 units/ml | 94.9%
3 | O=C(O)c1cccn1Cc1ccccc1 [Compound 2, 1-(phenylmethyl)-1H-pyrrole-2-carboxylic acid] | 171.3 +/- 7.9 units/ml | 67.4%

Source: patent EP0381141B1, “Novel aryl- or heteroaryl-1-alkyl-pyrrole-2-carboxylic acid compounds useful in treating interleukin-1 mediated conditions” (MERRELL DOW PHARMACEUTICALS INC., priority 1989, dated 1990)
